# Source: ChEMBL document CHEMBL1201862, “PubChem BioAssay data set” (2004)
#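 Tested at 5 concentrations; 48 h exposure; 96-well plates; endpoints linearly interpolated, else capped at highest concentration. At the GI50, growth is halved.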 Calls of active or inactive are those of the source. No stated cut-off is given here; in the data, active = GI50 up to about 1.1 µM and inactive = higher.
# Columns and labels:
# Experiment in all cases: inhibition of tumour cell growth, NCI panel, 48 h
# BT-549 = system: BT-549
# COLO 205 = system: COLO 205
# DU-145 = system: DU-145
# HCC 2998 = system: HCC 2998
# HCT-15 = system: HCT-15
# IGROV-1 = system: IGROV-1
# MDA-MB-231 = system: MDA-MB-231
# MOLT-4 = system: MOLT-4
# Malme-3M = system: Malme-3M
# NCI-H226 = system: NCI-H226
# NCI-H23 = system: NCI-H23
# NCI-H460 = system: NCI-H460
# NCI/ADR-RES = system: NCI/ADR-RES
# OVCAR-5 = system: OVCAR-5
# OVCAR-8 = system: OVCAR-8
# SF-295 = system: SF-295
# SF-539 = system: SF-539
# SW-620 = system: SW-620
# T47D = system: T47D
# UACC-257 = system: UACC-257
Structure (SMILES),GI50 (BT-549),GI50 (COLO 205),GI50 (DU-145),GI50 (HCC 2998),GI50 (HCT-15) [µM],GI50 (IGROV-1),GI50 (MDA-MB-231),GI50 (MOLT-4),GI50 (Malme-3M),GI50 (NCI-H226),GI50 (NCI-H23),GI50 (NCI-H460),GI50 (NCI/ADR-RES),GI50 (OVCAR-5),GI50 (OVCAR-8),GI50 (SF-295),GI50 (SF-539),GI50 (SW-620),GI50 (T47D),GI50 (UACC-257)
CC1Oc2cc3c(-c4c(O)cc(O)c5c(O)c6c(cc45)OC(C)C(C)C6=O)c(O)cc(O)c3c(O)c2C(=O)C1C (stereo not given),0.0605 µM (active),0.17 µM (active),0.365 µM (active),0.281 µM (active),0.0474,0.0574 µM (active),0.0925 µM (active),0.109 µM (active),0.265 µM (active),0.0871 µM (active),0.122 µM (active),0.0259 µM (active),0.162 µM (active),0.55 µM (active),0.0859 µM (active),0.061 µM (active),0.15 µM (active),0.136 µM (active),0.259 µM (active),0.289 µM (active)
Nc1ccc(Oc2ccc(C34CC5CC(C3)CC(c3ccc(Oc6ccc(N)c(O)c6)cc3)(C5)C4)cc2)cc1O,0.993 µM (active),1.52 µM (inactive),1.71 µM (inactive),1.47 µM (inactive),1.77,1.5 µM (inactive),1.57 µM (inactive),2.48 µM (inactive),1.85 µM (inactive),3.1 µM (inactive),1.79 µM (inactive),1.75 µM (inactive),2.32 µM (inactive),2.05 µM (inactive),1.7 µM (inactive),2.31 µM (inactive),2.13 µM (inactive),2.89 µM (inactive),1.76 µM (inactive),1.97 µM (inactive)
S=C(Nc1ccc(Cl)cc1)SC1CCCCC1,29 µM (inactive),30.5 µM (inactive),40.9 µM (inactive),19.2 µM (inactive),23.2,21.2 µM (inactive),29.4 µM (inactive),29.2 µM (inactive),28.4 µM (inactive),72.4 µM (inactive),20.5 µM (inactive),28.4 µM (inactive),37.1 µM (inactive),17.5 µM (inactive),31.5 µM (inactive),19.1 µM (inactive),23.1 µM (inactive),32.9 µM (inactive),22.5 µM (inactive),25.9 µM (inactive)
N=C(N)NS(=O)(=O)c1ccc(Nc2c3ccccc3nc3c(C(=O)NNCCO)cccc23)cc1,0.121 µM (active),0.183 µM (active),0.578 µM (active),0.211 µM (active),0.33,0.153 µM (active),0.261 µM (active),0.184 µM (active),0.14 µM (active),0.19 µM (active),0.133 µM (active),0.158 µM (active),> 1 µM (active),0.499 µM (active),0.303 µM (active),0.407 µM (active),0.303 µM (active),0.164 µM (active),0.12 µM (active),0.22 µM (active)
Nc1nc(N)c(NC(=O)CCCO)c(=O)[nH]1,> 100 µM (inactive),> 100 µM (inactive),> 100 µM (inactive),> 100 µM (inactive),> 100,> 100 µM (inactive),> 100 µM (inactive),> 100 µM (inactive),> 100 µM (inactive),> 100 µM (inactive),> 100 µM (inactive),> 100 µM (inactive),> 100 µM (inactive),> 100 µM (inactive),> 100 µM (inactive),> 100 µM (inactive),> 100 µM (inactive),> 100 µM (inactive),> 100 µM (inactive),> 100 µM (inactive)
Oc1ccc(Br)cc1/C=N/c1cccc(C(F)(F)F)c1,22.3 µM (inactive),96.6 µM (inactive),36.8 µM (inactive),23.1 µM (inactive),6.07,6.24 µM (inactive),23.4 µM (inactive),23.1 µM (inactive),23.5 µM (inactive),17.3 µM (inactive),37.2 µM (inactive),> 100 µM (inactive),28.5 µM (inactive),> 100 µM (inactive),30.4 µM (inactive),38.6 µM (inactive),20.8 µM (inactive),24 µM (inactive),19.9 µM (inactive),35.6 µM (inactive)
C=C1C(=O)O[C@H]2[C@H]3O[C@@H](C[C@@H]12)[C@@]1(C)CC[C@H](O1)C(C)=CCC[C@H]3C,0.581 µM (active),1.81 µM (inactive),1.49 µM (inactive),1.75 µM (inactive),1.49,1.53 µM (inactive),1.62 µM (inactive),1.26 µM (inactive),1.75 µM (inactive),2.46 µM (inactive),1.53 µM (inactive),2.07 µM (inactive),1.72 µM (inactive),3.09 µM (inactive),1.44 µM (inactive),5.16 µM (inactive),1.55 µM (inactive),1.26 µM (inactive),2.11 µM (inactive),1.76 µM (inactive)
COc1ccccc1C1ON=C(c2ccc([N+](=O)[O-])cc2)N1C12CC3CC(CC(C3)C1)C2 (stereo not given),> 100 µM (inactive),> 100 µM (inactive),> 100 µM (inactive),> 100 µM (inactive),91.6,> 100 µM (inactive),> 100 µM (inactive),17.6 µM (inactive),61.5 µM (inactive),> 100 µM (inactive),> 100 µM (inactive),47.9 µM (inactive),> 100 µM (inactive),44.7 µM (inactive),> 100 µM (inactive),80.2 µM (inactive),> 100 µM (inactive),> 100 µM (inactive),14 µM (inactive),> 100 µM (inactive)
CCOc1ccccc1/N=N/C1C(=O)N(C(=O)CC(=O)Nc2ccccc2Cl)N=C1C (stereo not given),78.7 µM (inactive),> 100 µM (inactive),> 100 µM (inactive),> 100 µM (inactive),26.9,64.6 µM (inactive),97.9 µM (inactive),> 100 µM (inactive),> 100 µM (inactive),> 100 µM (inactive),> 100 µM (inactive),40.2 µM (inactive),89.3 µM (inactive),> 100 µM (inactive),88.3 µM (inactive),37.6 µM (inactive),> 100 µM (inactive),> 100 µM (inactive),> 100 µM (inactive),> 10 µM (inactive)
COC(=O)/C(C#N)=C/c1cc(C(C)(C)C)c(O)c(C(C)(C)C)c1,2.77 µM (inactive),1.44 µM (inactive),4.58 µM (inactive),2.7 µM (inactive),2.67,4.55 µM (inactive),1.63 µM (inactive),2.2 µM (inactive),5.55 µM (inactive),1.96 µM (inactive),1.42 µM (inactive),1.95 µM (inactive),1.11 µM (active),2.54 µM (inactive),2.99 µM (inactive),1.74 µM (inactive),3.27 µM (inactive),3.03 µM (inactive),0.83 µM (active),1.82 µM (inactive)
Cc1cc(S(=O)(=O)Nc2nc(N)nc(N3N=CCC3C)n2)c(SCC(=O)O)cc1Cl (stereo not given),> 10 µM (inactive),> 10 µM (inactive),> 10 µM (inactive),> 10 µM (inactive),> 10,> 10 µM (inactive),> 10 µM (inactive),> 10 µM (inactive),> 10 µM (inactive),> 10 µM (inactive),> 10 µM (inactive),> 10 µM (inactive),> 10 µM (inactive),> 10 µM (inactive),> 10 µM (inactive),> 10 µM (inactive),> 10 µM (inactive),> 10 µM (inactive),> 10 µM (inactive),> 10 µM (inactive)
Cc1nn(C(=O)c2ccc(Cl)cc2)c2c1C(/C=C/c1ccccc1)SC(=N)N2 (stereo not given),> 10 µM (inactive),> 10 µM (inactive),> 10 µM (inactive),> 10 µM (inactive),> 10,> 10 µM (inactive),> 10 µM (inactive),> 10 µM (inactive),> 10 µM (inactive),> 10 µM (inactive),> 10 µM (inactive),> 10 µM (inactive),> 10 µM (inactive),> 10 µM (inactive),> 10 µM (inactive),> 10 µM (inactive),> 10 µM (inactive),> 10 µM (inactive),> 10 µM (inactive),> 10 µM (inactive)
Clc1ccc2c(NC3CCC(N4CCCCC4)CC3)ccnc2c1 (stereo not given),18.5 µM (inactive),11.7 µM (inactive),27.4 µM (inactive),12.2 µM (inactive),27.4,29.2 µM (inactive),16.9 µM (inactive),14.6 µM (inactive),20.2 µM (inactive),25.1 µM (inactive),52.5 µM (inactive),15 µM (inactive),34 µM (inactive),30.7 µM (inactive),29.4 µM (inactive),19.1 µM (inactive),15.4 µM (inactive),27.7 µM (inactive),29.4 µM (inactive),14.3 µM (inactive)
COC(=O)C1=C(C)C(=O)[C@]23C(CCCC[C@H]12)C(=O)[C@H](C(=O)OC)C3C (stereo not given in full),> 100 µM (inactive),> 100 µM (inactive),> 100 µM (inactive),> 100 µM (inactive),> 100,> 100 µM (inactive),> 100 µM (inactive),> 100 µM (inactive),> 100 µM (inactive),> 100 µM (inactive),> 100 µM (inactive),> 100 µM (inactive),> 100 µM (inactive),> 100 µM (inactive),> 100 µM (inactive),> 100 µM (inactive),> 100 µM (inactive),> 100 µM (inactive),> 100 µM (inactive),> 100 µM (inactive)
